pIC50: −log10 of the molar value.
Experiments:
[1] = molecular target: T1, mutEGFR (D770_N771insSVD) (Homo sapiens, UniProt P00533, DUP768-770); experiment: Exon20-Mutant-EGFR (D770_N771insSVD) kinase assay (TR-FRET); type: biochemical; details: mutEGFR (D770_N771insSVD) kinase assay IC50, Table 2a; D770_N771insSVD; 2 mM ATP
T1 construct: GST-EGFR #3 (SVD between D770 and N771); made in house; host or cells: Sf9 insect cells (baculovirus)

BA/F3 (insSVD) cells = experiment: Ba/F3-EGFR-insSVD cell survival assay (Cell Titer-Glo); type: cell-based; details: Table 3a, cell survival, Cell Titer-Glo, with 10 ng/ml EGF, without IL-3
Protocol: Cellular Data Description (WT, insSVD, insSVD T790M) 293T cells from ATCC were transfected with pBABEpuro expression constructs for WT EGFR or EGFR-insSVD, or EGFR-insSVD T790M, and pCL-Eco packaging vector using Fugene-6 transfection reagent from Promega. Plates were incubated at 37° C. for 48 h. Retrovirus was harvested by filtering the media supernatant through a 0.45 μm filter.
Ba/F3 cells purchased from DSMZ were grown in RPMI+10% FBS+10 ng/ml IL-3 and infected with filtered retroviral supernatant at a 1:2 dilution. Polybrene was added to a concentration of 8 μg/mL, plates were spun for 90 min, and incubated for 16 h at 37° C. 2 μg/mL puromycin was added to the infected cells 24 h after infection and cells were continually grown in the presence of puromycin and 10 ng/ml IL-3. Following stably expressing Ba/F3 cell lines were generated: Ba/F3-EGFR-WT, Ba/F3-EGFR-insSVD, Ba/F3-EGFR-insSVD T790M, (Ba/F3-vector-control).
For cell survival assays, Ba/F3 cells were grown to a density of 1-2 million cells per mL, spun down and resuspended in media without IL-3, and replated at a concentration of 200,000-500,000 cells per mL. The cells ectopically expressing WT EGFR, EGFR-insSVD, or EGFR-insSVD T790M were plated with 10 ng/ml Millipore Culture grade EGF. The cells ectopically expressing pBABEpuro empty vector were plated with 10 ng/mL IL-3.
2 days later, cells were plated in 50 µL in a 384 well plate at a concentration of 4000 cells per well for cells assayed in the absence of IL-3 and 2000 cells per well for cells assayed in the presence of IL-3. 100 nL of compound was added to each well using a 100 nL pin head, and plates were incubated at 37° C. for 48 h.
Cell viability was measured by adding 20 μL of Cell Titer-Glo Luminescent Cell Viability Reagent diluted 1:3 in PBS. Plates were sealed with Perkin Elmer Top-Seal, inverted several times to mix, and immediately centrifuged at 1000 rpm for 2 min. Plates were incubated in low light conditions for 8-10 min and luminescence was measured.

T1 sequence (P00533 with tags, fused parts or gaps DUP768-770): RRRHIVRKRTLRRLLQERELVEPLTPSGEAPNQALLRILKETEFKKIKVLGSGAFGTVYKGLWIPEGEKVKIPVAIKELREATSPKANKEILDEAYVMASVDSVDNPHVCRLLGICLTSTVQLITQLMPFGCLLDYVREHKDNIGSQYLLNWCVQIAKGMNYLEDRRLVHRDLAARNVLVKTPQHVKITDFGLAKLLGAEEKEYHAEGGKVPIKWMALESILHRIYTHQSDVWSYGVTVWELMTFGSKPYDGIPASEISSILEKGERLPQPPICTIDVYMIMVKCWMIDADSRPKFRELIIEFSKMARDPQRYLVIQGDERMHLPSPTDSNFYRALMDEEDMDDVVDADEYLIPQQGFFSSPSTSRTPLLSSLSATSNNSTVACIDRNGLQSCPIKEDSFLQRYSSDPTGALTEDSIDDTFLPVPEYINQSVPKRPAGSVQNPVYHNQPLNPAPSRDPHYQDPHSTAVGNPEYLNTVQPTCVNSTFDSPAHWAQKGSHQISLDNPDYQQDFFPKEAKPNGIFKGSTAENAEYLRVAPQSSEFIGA

| pIC50 [1] | Compound | pIC50 (BA/F3 (insSVD) cells; Mus musculus, BaF3, 48 h) | pIC50 (BA/F3 (insSVD) cells; 48 h) |
| --- | --- | --- | --- |
| 6.68 | C=CC(=O)N1CCn2nc(-c3cccc(C(F)(F)F)c3)c(-c3ccnc4[nH]cc(C)c34)c2C1 [Example 178, 1-(3-(3-methyl-1H-pyrrolo[2,3-b]pyridin-4-yl)-2-(3-(trifluoromethyl)phenyl)-6,7-dihydropyrazolo[1,5-a]pyrazin-5(4H)-yl) prop-2-en-1-one] | 7.23 |  |
| 8.38 | CCNC/C=C/C(=O)N1CCn2nc(-c3ccc(F)cc3)c(-c3ccncc3)c2C1 [Example 81, (2E)-4-(ethylamino)-1-[2-(4-fluorophenyl)-3-(pyridin-4-yl)-6,7-dihydropyrazolo[1,5-a]pyrazin-5(4H)-yl]but-2-en-1-one] | 6.87 |  |
| 7.52 | Cc1c[nH]c2nccc(-c3c(-c4ccc5cc(F)sc5c4)nn4c3CN(C(=O)/C=C/CN(C)C)CC4)c12 [Example 187, (2E)-4-(dimethylamino)-1-[2-(2-fluoro-1-benzothiophen-6-yl)-3-(3-methyl-1H-pyrrolo[2,3-b]pyridin-4-yl)-6,7-dihydropyrazolo[1,5-a]pyrazin-5(4H)-yl]but-2-en-1-one] |  |  |
| 8.95 | C=CC(=O)N1C(C)c2c(-c3ccncc3)c(-c3ccc(Cl)cc3F)nn2C[C@H]1C (single isomer, unassigned; isomer 2) [Example 291] |  | 7.28 |
| 5.93 | C=CC(=O)N1C(C)c2c(-c3ccncc3)c(-c3ccc(Cl)cc3F)nn2C[C@H]1C (single isomer, unassigned; isomer 1) [Example 290] |  | 5.46 |
| 7.22 | C=CC(=O)N1CCn2nc(-c3ccc4cc(F)sc4c3)c(-c3ccnc4[nH]cc(C)c34)c2C1 [Example 181, 1-[2-(2-fluoro-1-benzothiophen-6-yl)-3-(3-methyl-1H-pyrrolo[2,3-b]pyridin-4-yl)-6,7-dihydropyrazolo[1,5-a]pyrazin-5(4H)-yl]prop-2-en-1-one] | 7.19 |  |
| 8.73 | C=CC(=O)N1CCn2nc(-c3cccc(CO)c3)c(-c3ccncc3)c2C1 [Example 121, 1-{2-[3-(hydroxymethyl)phenyl]-3-(pyridin-4-yl)-6,7-dihydropyrazolo[1,5-a]pyrazin-5(4H)-yl}prop-2-en-1-one] | 6.67 |  |
| 6.78 | C=CC(=O)N1CCn2nc(-c3cccc(Cl)c3F)c(-c3ccnc4[nH]cc(C)c34)c2C1 [Example 176, 1-[2-(3-chloro-2-fluorophenyl)-3-(3-methyl-1H-pyrrolo[2,3-b]pyridin-4-yl)-6,7-dihydropyrazolo[1,5-a]pyrazin-5(4H)-yl]prop-2-en-1-one] | 7.20 |  |
| 8.95 | C=CC(=O)N1Cc2c(-c3ccncc3)c(-c3ccc(C(F)(F)F)cc3F)nn2C[C@H]1C [Example 125, 1-[(6R)-2-[2-fluoro-4-(trifluoromethyl)phenyl]-6-methyl-3-(pyridin-4-yl)-6,7-dihydropyrazolo[1,5-a]pyrazin-5(4H)-yl]prop-2-en-1-one] | 7.34 |  |
| 9.42 | CN(C/C=C/C(=O)N1CCn2nc(-c3ccc(Cl)cc3)c(-c3ccncc3)c2C1)CCO [Example 170, (2E)-1-[2-(4-chlorophenyl)-3-(pyridin-4-yl)-6,7-dihydropyrazolo[1,5-a]pyrazin-5(4H)-yl]-4-[(2-hydroxyethyl)(methyl)amino]but-2-en-1-one] | 6.72 |  |
| 6.63 | Cc1c[nH]c2nccc(-c3c(-c4cccc(C(F)(F)F)c4)nn4c3CN(C(=O)/C=C/CN(C)C)CC4)c12 [Example 185, (E)-4-(dimethylamino)-1-(3-(3-methyl-1H-pyrrolo[2,3-b]pyridin-4-yl)-2-(3-(trifluoromethyl)phenyl)-6,7-dihydropyrazolo[1,5-a]pyrazin-5(4H)-yl) but-2-en-1-one] | 7.16 |  |
| 7.53 | CN1CCN(C/C=C/C(=O)N2CCn3nc(-c4ccc(F)cc4)c(-c4ccncc4)c3C2)CC1 [Example 82, (2E)-1-[2-(4-fluorophenyl)-3-(pyridin-4-yl)-6,7-dihydropyrazolo[1,5-a]pyrazin-5(4H)-yl]-4-(4-methylpiperazin-1-yl) but-2-en-1-one] | 6.13 |  |

Reference: patent US20260365653A1, “IRREVERSIBLE MUTEGFR INHIBITORS” (Bayer Aktiengesellschaft, priority 2022, published 2026)
